Data reported in patent US20170252338A1, “MEDICINE” (KOWA COMPANY, LTD., priority 2014, published 2017).

Columns and labels:
[1] = Thermal stability test (residual ratio by HPLC after storage in glass bottles); assay type: physicochemical; settings: for Residual ratio (%) After storage at 80° C. for 72 hours / Residual ratio (%) After storage at 100° C. for 24 hours / Residual ratio (%) After storage at 120° C. for 16 hours: glass bottles, HPLC area percentage
Protocol: A test compound was introduced into glass bottles, and the bottles were stored for certain time periods under temperature conditions of 80° C., 100° C., or 120° C. Subsequently, the residual ratio (%) of the pyrimidine compound (1) in the test compound was measured. Regarding the residual ratio, the proportion of the pyrimidine compound (1) contained in the test compound was measured as the peak area percentage using high performance liquid chromatography. In regard to the measurement by high performance liquid chromatography, an ODS column was used as a column, and a mixture of two kinds, namely, a 0.1% aqueous solution of TFA and a 0.1% acetonitrile solution of TFA, was used as a solvent. The detection wavelength was 242 nm. The residual ratio was calculated by the following calculation expression from the area percentage of the pyrimidine compound (1) thus obtained. Residual ratio (%)=Area percentage of pyrimidine compound (1) after storage/area percentage of pyrimidine compound (1) before storage×100 As the test compound, the crystals (crystals of pyrimidine compound (1) hydrochloride) obtained in Reference Example 1-3, and the free form of the pyrimidine compound (1) were used.

[2] = system: LDL cholesterol in blood plasma; experiment: Evaluation of combined use of statin and CETP inhibitor: blood plasma LDL cholesterol after two weeks oral administration in guinea pigs; assay type: in vivo, guinea pigs (Slc: Hartley); settings: for Plasma LDL cholesterol lowering ratio / Amount of LDL cholesterol in blood plasma: oral, two weeks; for Amount of LDL cholesterol in blood plasma: male guinea pigs, average ± standard deviation
Protocol: Male guinea pigs (six weeks old, Slc: Hartley, Japan SLC, Inc.) were used for the experiment. Blood was collected from the jugular vein, and the guinea pigs were grouped on the basis of the total plasma cholesterol level and body weight.
After completion of repeated administration, blood was collected under anesthesia with pentobarbital, and the amount of LDL cholesterol in blood plasma (mg/dl. Hereinafter, described as “amount of LDL cholesterol in blood plasma”) was measured using high performance liquid chromatography according to the method by Usui, et al. (Usui et al., Clin. Chem., 46, 63-72 (2000)).
The group configuration consisted of the following four items, and six guinea pigs were used for each group.
(2) Pitavastatin single administration group: Pitavastatin calcium pentahydrate was orally administered at a dose of 1 mg/kg of body weight.
The amount of LDL cholesterol in blood plasma was obtained as an average value ±standard deviation.
Furthermore, the proportions of lowering of LDL cholesterol in blood plasma in the various drug administration groups (“plasma LDL cholesterol lowering ratios”) were calculated by the expression described below, from the average values of the amounts of LDL cholesterol in blood plasma of the control group and the various drug administration groups.
Plasma LDL cholesterol lowering ratio (%)=[(Cc−Ct)/Cc]×100
wherein Cc represents the average value of the amount of LDL cholesterol in blood plasma in the control group; and Ct represents the average value of the amount of LDL cholesterol in blood plasma of each of the various drug administration groups.
Furthermore, the average values of the amounts of LDL cholesterol in blood plasma of each of the various drug administration groups in a case in which the average value of the amount of LDL cholesterol in blood plasma of the control group was designated as 1, were calculated as relative indices.
Furthermore, determination of a synergistic effect according to Bulge formula was implemented.

[3] = Test Example 1-1, [(Cc−Ct)/Cc]×100 vs control group, pitavastatin 1 mg/kg, pyrimidine compound (1) 30 mg/kg
[4] = Test Example 1-1, average plasma LDL cholesterol with control group designated as 1, pitavastatin 1 mg/kg, pyrimidine compound (1) 30 mg/kg
[5] = Test Example 1-1, pitavastatin calcium pentahydrate 1 mg/kg, pyrimidine compound (1) monohydrochloride 30 mg/kg, six per group, control 22.4 ± 2.9
[6] = Test Example 1-2, control group designated as 1, pitavastatin 1 mg/kg, anacetrapib 30 mg/kg
[7] = Test Example 1-2, pitavastatin 1 mg/kg, anacetrapib 30 mg/kg, control 18.5 ± 4.8
[8] = Test Example 1-2, vs control group, pitavastatin 1 mg/kg, anacetrapib 30 mg/kg

Row | Residual ratio (%) After storage at 80° C. for 72 hours [1] [%] | Residual ratio (%) After storage at 100° C. for 24 hours [1] [%] | Residual ratio (%) After storage at 120° C. for 16 hours [1] [%] | Thermal stability ([1]; conclusion from Table 10) | Compound | Plasma LDL cholesterol lowering ratio [2, 3] [%] | Relative index [2, 4] | Amount of LDL cholesterol in blood plasma [2, 5] [mg/dL] | Relative index [2, 6] | Amount of LDL cholesterol in blood plasma [2, 7] [mg/dL] | Plasma LDL cholesterol lowering ratio [2, 8] [%]
1 | 99.5 | 89.3 | 71.5 | – | CCN(C[C@H]1CC[C@H](CC(=O)O)CC1)c1ccc(C(F)(F)F)cc1CN(c1ncc(OCCS(C)(=O)=O)cn1)[C@@H](C)c1cc(C(F)(F)F)cc(C(F)(F)F)c1 [Free form of pyrimidine compound (1), (S)-trans-{4-[({2-[({1-[3,5-bis(trifluoromethyl)phenyl]ethyl}{5-[2-(methylsulfonyl)ethoxy]pyrimidin-2-yl}amino)methyl]-4-(trifluoromethyl)phenyl}(ethyl)amino)methyl]cyclohexyl}acetic acid] | – | – | – | – | – | –
2 | – | – | – | – | CCN(C[C@H]1CC[C@H](CC(=O)O)CC1)c1ccc(C(F)(F)F)cc1CN(c1ncc(OCCS(C)(=O)=O)cn1)[C@@H](C)c1cc(C(F)(F)F)cc(C(F)(F)F)c1 [Pyrimidine compound (1), (S)-trans-{4-[({2-[({1-[3,5-bis(trifluoromethyl)phenyl]ethyl}{5-[2-(methylsulfonyl)ethoxy]pyrimidin-2-yl}amino)methyl]-4-(trifluoromethyl)phenyl}(ethyl)amino)methyl]cyclohexyl}acetic acid] | 16 | 0.84 | 18.9 ± 3.8 | – | – | –
3 | 100.0 | 100.0 | 99.5 | excellent thermal stability | CCN(C[C@H]1CC[C@H](CC(=O)O)CC1)c1ccc(C(F)(F)F)cc1CN(c1ncc(OCCS(C)(=O)=O)cn1)[C@@H](C)c1cc(C(F)(F)F)cc(C(F)(F)F)c1.Cl [(S)-trans-{4-[({2-[({1-[3,5-bis(trifluoromethyl)phenyl]ethyl}{5-[2-(methylsulfonyl)ethoxy]pyrimidin-2-yl}amino)methyl]-4-(trifluoromethyl)phenyl}(ethyl)amino)methyl]cyclohexyl}acetic acid hydrochloride] | – | – | – | – | – | –
4 | – | – | – | – | O=C(O)C[C@H](O)C[C@H](O)/C=C/c1c(C2CC2)nc2ccccc2c1-c1ccc(F)cc1 [Pitavastatin, (+)-monocalcium is[(3R,5S,6E)-7-[2-cyclopropyl-4-(4-fluorophenyl)-3-quinolyl]-3,5-dihydroxy-6-heptenoate}] | 31 | 0.69 | 15.5 ± 3.9 | 0.62 | 11.5 ± 3.3 | 38
5 | – | – | – | – | COc1cc(F)c(C(C)C)cc1-c1ccc(C(F)(F)F)cc1CN1C(=O)O[C@H](c2cc(C(F)(F)F)cc(C(F)(F)F)c2)[C@@H]1C [Anacetrapib] | – | – | – | 0.98 | 18.2 ± 4.1 | 2
